Measurements from ChEMBL document CHEMBL3763146 (J Med Chem, 2016).

What was measured:
[1] = Induction of phospholidosis in human HepG2 cells incubated overnight by […] in presence of fluorescent labeled phospholipid probe NBD-PE; type: cell-based; conditions: read-out: A50
[2] = target: Sodium-dependent serotonin transporter (Homo sapiens, UniProt P31645); test: Inhibition of human SERT expressed in HEK293 cells preincubated for 30 mins followed by fluorescent substrate addition measured after 30 mins by plate reader analysis; type: cell-based
Sequence of Sodium-dependent serotonin transporter (P31645 whole entry): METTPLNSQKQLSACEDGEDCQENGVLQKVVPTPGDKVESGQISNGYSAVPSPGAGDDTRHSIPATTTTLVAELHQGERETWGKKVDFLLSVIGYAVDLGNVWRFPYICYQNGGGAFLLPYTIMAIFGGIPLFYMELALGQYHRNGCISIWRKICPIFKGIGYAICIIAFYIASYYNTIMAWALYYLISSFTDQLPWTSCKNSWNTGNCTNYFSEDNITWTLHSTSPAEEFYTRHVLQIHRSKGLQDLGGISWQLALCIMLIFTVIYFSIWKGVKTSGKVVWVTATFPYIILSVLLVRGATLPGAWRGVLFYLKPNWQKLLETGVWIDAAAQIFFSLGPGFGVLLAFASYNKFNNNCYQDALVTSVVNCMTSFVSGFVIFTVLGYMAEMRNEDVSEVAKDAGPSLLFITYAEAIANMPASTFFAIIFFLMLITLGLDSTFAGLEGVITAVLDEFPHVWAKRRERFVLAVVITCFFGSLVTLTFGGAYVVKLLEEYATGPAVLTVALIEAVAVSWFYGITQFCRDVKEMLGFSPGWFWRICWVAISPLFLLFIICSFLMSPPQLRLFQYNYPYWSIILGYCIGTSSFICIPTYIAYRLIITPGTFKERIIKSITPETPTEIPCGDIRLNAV

[3] = target: Sodium channel protein type 2 subunit alpha (Homo sapiens, UniProt Q99250); test: Inhibition of human Nav1.2 channel expressed in Xenopus oocytes by two-intracellular microelectrode voltage clamp method; type: cell-based
Sequence of Sodium channel protein type 2 subunit alpha (Q99250 whole entry, looked up): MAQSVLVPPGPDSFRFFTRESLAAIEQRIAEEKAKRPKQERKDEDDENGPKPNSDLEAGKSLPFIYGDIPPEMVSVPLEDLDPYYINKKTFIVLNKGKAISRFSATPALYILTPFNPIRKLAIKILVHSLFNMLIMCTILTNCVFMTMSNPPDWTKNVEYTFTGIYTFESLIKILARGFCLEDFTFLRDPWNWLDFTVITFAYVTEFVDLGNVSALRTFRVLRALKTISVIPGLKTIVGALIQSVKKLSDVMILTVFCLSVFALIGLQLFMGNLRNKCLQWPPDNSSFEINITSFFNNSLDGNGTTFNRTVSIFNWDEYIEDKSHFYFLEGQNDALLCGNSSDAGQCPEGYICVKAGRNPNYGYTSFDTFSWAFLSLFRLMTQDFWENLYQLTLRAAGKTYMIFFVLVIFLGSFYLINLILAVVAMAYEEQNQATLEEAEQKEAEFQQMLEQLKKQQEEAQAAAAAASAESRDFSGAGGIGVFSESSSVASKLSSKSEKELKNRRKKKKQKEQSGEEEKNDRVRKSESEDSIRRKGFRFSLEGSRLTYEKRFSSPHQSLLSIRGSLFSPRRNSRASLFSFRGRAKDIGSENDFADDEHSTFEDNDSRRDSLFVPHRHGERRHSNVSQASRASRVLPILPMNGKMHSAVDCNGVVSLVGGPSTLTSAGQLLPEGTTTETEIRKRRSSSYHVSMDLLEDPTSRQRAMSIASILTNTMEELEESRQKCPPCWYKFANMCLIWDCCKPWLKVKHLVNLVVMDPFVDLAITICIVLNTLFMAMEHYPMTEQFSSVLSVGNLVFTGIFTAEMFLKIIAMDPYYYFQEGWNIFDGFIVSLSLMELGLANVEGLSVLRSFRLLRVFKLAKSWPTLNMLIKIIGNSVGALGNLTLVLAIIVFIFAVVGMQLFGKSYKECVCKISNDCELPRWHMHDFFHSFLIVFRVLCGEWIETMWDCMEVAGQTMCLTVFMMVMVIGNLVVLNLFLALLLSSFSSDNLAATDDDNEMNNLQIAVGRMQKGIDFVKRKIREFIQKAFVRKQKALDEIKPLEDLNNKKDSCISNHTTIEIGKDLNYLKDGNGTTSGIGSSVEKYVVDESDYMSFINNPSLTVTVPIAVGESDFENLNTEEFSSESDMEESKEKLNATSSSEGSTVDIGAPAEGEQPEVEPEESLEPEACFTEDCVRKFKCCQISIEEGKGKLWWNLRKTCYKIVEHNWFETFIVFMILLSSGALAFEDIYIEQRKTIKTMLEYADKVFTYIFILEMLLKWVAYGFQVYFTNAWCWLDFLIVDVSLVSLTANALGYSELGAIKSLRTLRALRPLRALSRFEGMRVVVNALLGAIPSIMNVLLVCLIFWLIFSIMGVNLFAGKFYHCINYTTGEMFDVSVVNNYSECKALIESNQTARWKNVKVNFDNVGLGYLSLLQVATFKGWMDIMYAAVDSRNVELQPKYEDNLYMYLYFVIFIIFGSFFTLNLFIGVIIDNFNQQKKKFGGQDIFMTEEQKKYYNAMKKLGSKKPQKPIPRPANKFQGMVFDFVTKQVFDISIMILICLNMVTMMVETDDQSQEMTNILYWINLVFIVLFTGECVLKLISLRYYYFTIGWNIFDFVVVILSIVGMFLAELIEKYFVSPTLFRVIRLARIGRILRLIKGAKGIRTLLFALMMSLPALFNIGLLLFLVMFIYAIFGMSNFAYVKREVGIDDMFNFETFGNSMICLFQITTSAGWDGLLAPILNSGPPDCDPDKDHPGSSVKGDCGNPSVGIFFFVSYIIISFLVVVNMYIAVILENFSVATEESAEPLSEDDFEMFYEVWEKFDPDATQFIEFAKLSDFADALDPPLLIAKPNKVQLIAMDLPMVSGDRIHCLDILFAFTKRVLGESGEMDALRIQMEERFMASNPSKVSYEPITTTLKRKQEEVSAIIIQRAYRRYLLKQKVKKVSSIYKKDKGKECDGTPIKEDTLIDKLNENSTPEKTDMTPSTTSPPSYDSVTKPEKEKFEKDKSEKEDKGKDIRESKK

[4] = target: Voltage-dependent L-type calcium channel subunit alpha-1C (Homo sapiens, UniProt Q13936); test: Displacement of [3H]-diltiazem from human Cav1.2 channel
[5] = target: T1, Beta-3 adrenergic receptor (Homo sapiens, UniProt P13945); test: Agonist activity at human beta3 adrenergic receptor expressed in CHO cells assessed as accumulation of cAMP after 30 mins by TR-FRET assay relative to (R)-(-)-isoproterenol; type: functional, cell-based
Target sequence in this assay (P13945 whole entry, looked up): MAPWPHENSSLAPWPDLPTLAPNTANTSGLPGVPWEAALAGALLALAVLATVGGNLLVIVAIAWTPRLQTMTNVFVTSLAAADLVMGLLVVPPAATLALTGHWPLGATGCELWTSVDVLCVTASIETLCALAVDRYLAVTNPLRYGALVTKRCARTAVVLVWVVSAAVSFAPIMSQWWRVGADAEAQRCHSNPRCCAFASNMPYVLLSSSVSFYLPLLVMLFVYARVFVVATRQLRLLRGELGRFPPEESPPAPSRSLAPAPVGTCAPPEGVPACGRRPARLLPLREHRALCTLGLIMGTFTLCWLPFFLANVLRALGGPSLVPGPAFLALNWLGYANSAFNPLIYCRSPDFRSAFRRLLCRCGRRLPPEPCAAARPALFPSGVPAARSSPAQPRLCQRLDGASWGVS

[6] = target: T1, Beta-3 adrenergic receptor; test: Agonist activity at human beta3 adrenergic receptor expressed in CHO cells assessed as accumulation of cAMP after 30 mins by TR-FRET assay; type: functional, cell-based
Target sequence in this assay (P13945 whole entry): as the sequence (P13945 whole entry, looked up) above

[7] = Plasma clearance in rat at 1 mg/kg, iv or 2 mg/kg, po; type: ADME, organism-based
[8] = Plasma clearance in dog at 0.5 mg/kg, iv or 2 mg/kg, po; type: ADME, organism-based, Canis lupus familiaris
[9] = Stability in human plasma assessed as parent compound remaining at 24 hrs by LC-MS analysis; type: ADME, cell-free; conditions: read-out: Stability
[10] = Half life in rat at 1 mg/kg, iv or 2 mg/kg, po; type: ADME, organism-based; conditions: in vivo
[11] = Half life in dog at 0.5 mg/kg, iv or 2 mg/kg, po; type: ADME, organism-based, Canis lupus familiaris; conditions: in vivo
[12] = tested on: Rattus norvegicus; test: Dose normalized total AUC in rat at 2 mg/kg, po; type: ADME, organism-based; conditions: in vivo
[13] = tested on: Canis familiaris; test: Dose normalized total AUC in dog at 2 mg/kg, po; type: ADME, organism-based, Canis lupus familiaris; conditions: in vivo
[14] = Oral bioavailability in rat at 2 mg/kg; type: ADME, organism-based; conditions: in vivo
[15] = Oral bioavailability in dog at 2 mg/kg; type: ADME, organism-based, Canis lupus familiaris; conditions: in vivo
[16] = Intrinsic clearance in rat liver microsomes; type: ADME; conditions: read-out: CLH
[17] = Intrinsic clearance in dog liver microsomes; type: ADME, Canis lupus familiaris; conditions: read-out: CLH
[18] = Intrinsic clearance in human liver microsomes; type: ADME; conditions: read-out: CLH
[19] = Intrinsic clearance in rhesus monkey liver microsomes; type: ADME, Macaca mulatta; conditions: read-out: CLH
[20] = Stability in rat plasma assessed as parent compound remaining at 24 hrs by LC-MS analysis; type: ADME, cell-free; conditions: read-out: Stability
[21] = Stability in dog plasma assessed as parent compound remaining at 24 hrs by LC-MS analysis; type: ADME, cell-free, Canis lupus familiaris; conditions: read-out: Stability
[22] = Stability in rhesus monkey plasma assessed as parent compound remaining at 24 hrs by LC-MS analysis; type: ADME, cell-free, Macaca mulatta; conditions: read-out: Stability
[23] = target: Sodium-dependent dopamine transporter (Homo sapiens, UniProt Q01959); test: Inhibition of human dopamine transporter
Sequence of Sodium-dependent dopamine transporter (Q01959 whole entry): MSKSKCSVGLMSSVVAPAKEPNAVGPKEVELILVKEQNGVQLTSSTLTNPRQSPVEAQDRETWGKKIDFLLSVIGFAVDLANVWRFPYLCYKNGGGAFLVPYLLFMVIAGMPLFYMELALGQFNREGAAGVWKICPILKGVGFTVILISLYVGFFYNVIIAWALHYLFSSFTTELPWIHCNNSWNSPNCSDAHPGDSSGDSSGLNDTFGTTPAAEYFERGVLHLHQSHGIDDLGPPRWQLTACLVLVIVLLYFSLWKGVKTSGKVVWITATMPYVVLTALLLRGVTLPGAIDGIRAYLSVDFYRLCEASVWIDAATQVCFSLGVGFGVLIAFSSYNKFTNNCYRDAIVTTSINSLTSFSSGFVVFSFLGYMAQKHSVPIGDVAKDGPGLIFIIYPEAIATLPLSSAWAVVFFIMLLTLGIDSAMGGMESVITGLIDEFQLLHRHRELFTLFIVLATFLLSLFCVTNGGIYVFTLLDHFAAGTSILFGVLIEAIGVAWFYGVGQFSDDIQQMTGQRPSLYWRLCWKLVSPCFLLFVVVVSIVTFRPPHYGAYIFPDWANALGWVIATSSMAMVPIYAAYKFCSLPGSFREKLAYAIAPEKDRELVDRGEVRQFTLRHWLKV

[24] = target: Beta-2 adrenergic receptor (Homo sapiens, UniProt P07550)
Sequence of Beta-2 adrenergic receptor (P07550 whole entry): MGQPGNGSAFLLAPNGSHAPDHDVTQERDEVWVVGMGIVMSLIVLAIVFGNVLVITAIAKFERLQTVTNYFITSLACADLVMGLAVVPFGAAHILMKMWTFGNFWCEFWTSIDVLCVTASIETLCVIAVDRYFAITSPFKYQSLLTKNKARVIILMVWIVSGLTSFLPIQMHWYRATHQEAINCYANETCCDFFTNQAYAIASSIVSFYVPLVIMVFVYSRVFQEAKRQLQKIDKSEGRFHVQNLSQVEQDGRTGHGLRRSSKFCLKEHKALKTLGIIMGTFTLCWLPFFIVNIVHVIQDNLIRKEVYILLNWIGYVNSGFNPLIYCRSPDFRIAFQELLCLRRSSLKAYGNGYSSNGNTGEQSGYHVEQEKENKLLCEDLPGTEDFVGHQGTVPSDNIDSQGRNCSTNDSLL
Description: Displacement of [125]I-cyanopindolol from human recombinant beta2 adrenergic receptor after 1 hr by scintillation counting method

[25] = target: Beta-1 adrenergic receptor (Homo sapiens, UniProt P08588)
Sequence of Beta-1 adrenergic receptor (P08588 whole entry): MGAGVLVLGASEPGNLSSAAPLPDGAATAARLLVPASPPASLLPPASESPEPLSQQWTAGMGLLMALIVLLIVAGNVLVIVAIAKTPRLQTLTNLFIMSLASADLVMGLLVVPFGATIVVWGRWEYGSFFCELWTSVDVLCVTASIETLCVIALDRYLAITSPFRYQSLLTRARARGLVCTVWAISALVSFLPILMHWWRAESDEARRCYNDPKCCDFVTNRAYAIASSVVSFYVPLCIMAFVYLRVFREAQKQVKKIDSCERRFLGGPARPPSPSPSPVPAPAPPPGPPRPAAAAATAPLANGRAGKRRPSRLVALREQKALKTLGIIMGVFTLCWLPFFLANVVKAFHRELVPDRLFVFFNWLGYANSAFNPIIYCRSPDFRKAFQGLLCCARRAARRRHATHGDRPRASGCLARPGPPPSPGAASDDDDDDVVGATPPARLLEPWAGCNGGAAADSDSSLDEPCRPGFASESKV
Description: Displacement of [125]I-cyanopindolol from recombinant human beta1 adrenergic receptor after 1 hr by scintillation counting method

## O=C(Nc1ccc(C[C@@H]2CC[C@H]([C@H](O)c3ccccc3)N2)cc1)[C@@H]1CCc2cccc(=O)n21
[1]
  AC50: 33 µM
[2]
  IC50: 7.1 µM
[3]
  IC50: > 30 µM
[4]
  IC50: > 30 µM
[5]
  max activation: 94%
[6]
  EC50: 0.00062 µM
[7]
  clearance: 77 mL/min/kg
[8]
  clearance: 26 mL/min/kg
[9]
  remaining at 24 h: 100%
[10]
  half-life: 3 h
[11]
  half-life: 6 h
[12]
  AUC/dose: 110 nM·h/mg/kg
[13]
  AUC/dose: 1500 nM·h/mg/kg
[14]
  bioavailability: 21%
[15]
  bioavailability: 100%
[16]
  CLint scaled: 29 mL/min/kg
[17]
  CLint scaled: 13 mL/min/kg
[18]
  CLint scaled: 19 mL/min/kg
[19]
  CLint scaled: 137 mL/min/kg
[20]
  remaining at 24 h: 92%
[21]
  remaining at 24 h: 92%
[22]
  remaining at 24 h: 72%
[23]
  IC50: 4.8 µM
[24]
  IC50: > 20 µM
[25]
  IC50: > 20 µM
